Legend:
[1] = system: rat adipocytes (랫트 지방 세포); experiment: Lipogenesis (지방형성): incorporation of D-[3-3H]glucose into toluene-soluble lipids in isolated rat adipocytes; type: cell-based; conditions: 90 min, 37°C; for EC50: concentration giving 50% of the compound's own maximum stimulation; for %Insmax: maximum insulin stimulation ratio (with/without insulin) = 100%
[2] = system: rat adipocytes (랫트 지방 세포); experiment: Glucose transport (글루코오스 이송): uptake of 2-[3H]-deoxyglucose in isolated rat adipocytes; type: cell-based; conditions: 15 min, 37°C, then 2-[3H]-deoxyglucose at room temperature; for EC50: concentration giving 50% of the compound's own maximum stimulation; for %Insmax: maximum insulin stimulation ratio = 100%

| Substance | EC50 [1] | EC50 [2] | %Insmax [1] | %Insmax [2] |
| --- | --- | --- | --- | --- |
| HO-PO(H)O-6Manα(Manα1-2)-2Manα1-6Manα1-4GluNβ1-6(L)이노시톨-1,2-(사이클릭)-포스페이트 [화합물 A] | 7 µM | 8 µM | 59% | 28% |
| HO-PO(H)O-6Manα1(Manα1-2)-2Manα1-6Manα1-4GluNβ1-6(D)이노시톨-1,2-(사이클릭)-포스페이트 [화합물 B] | 8.2 µM | 8.1 µM | 77% | 41% |
| HO-PO(H)O-6Manα1(Manα1-2)-2Manα1(6-EtNP)-6Manα1(2-EtNP)-4GluNβ1-6(D)이노시톨-1,2-(사이클릭)-포스페이트 | 60 µM | 30 µM | 48% | 34% |
| HO-PO(H)O-6Manα1-4GluNα1-6(L)이노시톨 | 25 µM | 10 µM | 15% | 2% |
| HO-PO(H)O-6Manα1(Manα1-2)-2Manα1-6Manα1-3GluNβ1-6(L)이노시톨-3-포스페이트 [D] | 20 µM | 18 µM | 33% | 18% |

Continued, in another order:

| EC50 [1] | EC50 [2] | Substance | %Insmax [1] | %Insmax [2] |
| --- | --- | --- | --- | --- |
| 15 µM | 25 µM | HO-PO(H)O-6Manα1(Manα1-2)-2Manα1-6Manα1-4GluNα1-6(L)이노시톨-2-포스페이트 [F] | 53% | 26% |
| 20 µM | 50 µM | HO-PO(H)O-6Manα1-6-Manα1-6Manα1-6Manα1-3GluNβ1-6(L)이노시톨-3-포스페이트 [I] | 18% | 14% |
| 7 µM | 10 µM | HO-PO(H)O-6Manα1(Manα1-2)-2Manα1-6Manα1-4GluNβ1-6(D)이노시톨-1,2-(사이클릭)-티오포스페이트 [C] | 64% | 29% |
| 15 µM | 15 µM | HO-PO(H)O-6Manα1-4GluNα1-6(L)이노시톨-1,2-(사이클릭)-포스페이트 | 25% | 9% |

Source: patent KR19980042868A, “인슐린-유사 작용을 갖는 이노시톨글리칸” (피셔 한스-위르겐, priority 1996, dated 1998)
